Test results from patent US7908091B2, “Methods of predicting and monitoring tyrosine kinase inhibitor therapy” (Prometheus Laboratories Inc., priority 2006, dated 2011).
Read-outs that look alike come from different tables or passages of the source.

How the values were obtained:
[1] = human, in vivo; cited from earlier work
[2] = system: hormone refractory prostate cancer; conditions: in vivo; cited from earlier work
[3] = system: advanced stage III or IV non-small cell lung cancer; conditions: progressive disease after standard chemotherapies; cited from earlier work
[4] = system: EGF-dependent cell proliferation; conditions: cited from earlier work
renal cell carcinoma = conditions: human, in vivo; cited from earlier work
A431 = experiment: gefitinib sensitivity (IC50) of cancer cell line
BT474 = experiment: gefitinib sensitivity (IC50) of cancer cell line
MDA-MB-361 = experiment: gefitinib sensitivity (IC50) of cancer cell line
SkBr3 = experiment: gefitinib sensitivity (IC50) of cancer cell line
Akt = conditions: gefitinib concentration of 10 μM, data from FIG. 3 of Moasser et al., cited from earlier work
DU145 = experiment: gefitinib sensitivity (IC50) of cancer cell line
SkOv3 = experiment: gefitinib sensitivity (IC50) of cancer cell line
MDA-MB-453 = experiment: gefitinib sensitivity (IC50) of cancer cell line
[5] = system: non-small cell lung cancer; conditions: patients with refractory non-small cell lung cancer in whom standard therapy failed; cited from earlier work
[6] = system: refractory acute myeloid leukemia; conditions: twice weekly administration; cited from earlier work
[7] = system: prostate cancer, renal cell carcinoma, or multiple myeloma; conditions: in vivo; cited from earlier work
[8] = system: refractory ovarian cancer; conditions: in vivo; cited from earlier work
advanced kidney cancer = conditions: after a 12-week treatment period, compared to the placebo group; cited from earlier work

For `Cc1oncc1C(=O)Nc1ccc(C(F)(F)F)cc1` [leflunomide], the “most common / toxic side-effects” value [1] is given as “asthenia, nausea, anorexia, and anemia”, the “patients with a decrease in prostate specific antigen of greater than 50%” value [2] is given as “about 7%” and the “patients with partial responses” value [2] is given as “less than 5%”.

In the case of `C#Cc1cccc(Nc2ncnc3cc(OCCOC)c(OCCOC)cc23)c1` [erlotinib], the “most common / toxic side-effects” value [1] is given as “an acneiform skin rash and diarrhea”, the median survival [3] is given as 8.4 months and the response rate [3] is given as 12%. For the same compound, the “inhibits EGF-dependent cell proliferation” value [4] was “nanomolar concentrations”.

For `Clc1ccc(Nc2nnc(Cc3ccncc3)c3ccccc23)cc1` [vatalanib], the “patients with minor responses” value (renal cell carcinoma) is given as 15% and the “patients with partial responses” value (renal cell carcinoma) is given as 5%.

With `COc1cc2ncnc(Nc3ccc(F)c(Cl)c3)c2cc1OCCCN1CCOCC1` [gefitinib] the “CATAG (gefitinib-sensitive)” value (A431) was 1 (An IC50 <9 μM was considered gefitinib-sensitive (“CATAG” = 1)), the “CATAG (gefitinib-sensitive)” value (BT474) was 1 (An IC50 <9 μM was considered gefitinib-sensitive (“CATAG” = 1)) and the “CATAG (gefitinib-sensitive)” value (MDA-MB-361) was 1 (An IC50 <9 μM was considered gefitinib-sensitive (“CATAG” = 1)). The “CATAG (gefitinib-sensitive)” value (SkBr3) was 1 (An IC50 <9 μM was considered gefitinib-sensitive (“CATAG” = 1)), the “Akt (level of Akt activity)” value (Akt; A431) was 2 and the “Akt (level of Akt activity)” value (Akt; A549) was 85. The “Akt (level of Akt activity)” value (Akt; BT474) was 10, the “Akt (level of Akt activity)” value (Akt; Colo205) was 105 and the “Akt (level of Akt activity)” value (Akt; DU145) was 35. The “Akt (level of Akt activity)” value (Akt; DU4475) was 105, the “Akt (level of Akt activity)” value (Akt; MCF-7) was 70 and the “Akt (level of Akt activity)” value (Akt; MDA-MB-361) was 20. For the same compound, the “Akt (level of Akt activity)” value (Akt; MDA-MB-453) was 40, the “Akt (level of Akt activity)” value (Akt; MDA-MB-468) was 90 and the “Akt (level of Akt activity)” value (Akt; MDA-MIB-231) was 70. For the same compound, the “Akt (level of Akt activity)” value (Akt; PC3) was 55, the “Akt (level of Akt activity)” value (Akt; SkBr3) was 2 and the “Akt (level of Akt activity)” value (Akt; SkOv3) was 40. The “Akt (level of Akt activity)” value (Akt; T24) was 90, the “Akt (level of Akt activity)” value (Akt; T47D) was 85 and the “Akt (level of Akt activity)” value (Akt; ZR75) was 85. The “CATAG (gefitinib-sensitive)” value (DU145) was 1 (An IC50 <9 μM was considered gefitinib-sensitive (“CATAG” = 1)), the “CATAG (gefitinib-sensitive)” value (SkOv3) was 1 (An IC50 <9 μM was considered gefitinib-sensitive (“CATAG” = 1)) and the “CATAG (gefitinib-sensitive)” value (MDA-MB-453) was 1 (An IC50 <9 μM was considered gefitinib-sensitive (“CATAG” = 1)). The response rate [5] was “about 10%”.

In the case of `CS(=O)(=O)CCNCc1ccc(-c2ccc3ncnc(Nc4ccc(OCc5cccc(F)c5)c(Cl)c4)c3c2)o1` [lapatinib], the “most common / toxic side-effects” value [1] is listed as “diarrhea and skin rash”.

For `Cc1cc(C)c(/C=C2\C(=O)Nc3ccccc32)[nH]1` [semaxinib], the complete responses [6] is listed as 1, the partial responses [6] is listed as 7 and the “most common / toxic side-effects” value [1] is listed as “headache, nausea, vomiting, asthenia, pain at the infusion site, phlebitis, change in voice, and fever”. The objective response rates [7] was “minimal objective response rates”.

For `C=CC(=O)Nc1cc2c(Nc3ccc(F)c(Cl)c3)ncnc2cc1OCCCN1CCOCC1` [canertinib], the antitumor activity [8] is given as “minimal antitumor activity”.

In the case of `CNC(=O)c1cc(Oc2ccc(NC(=O)Nc3ccc(Cl)c(C(F)(F)F)c3)cc2)ccn1` [sorafenib], the “most common / toxic side-effects” value [1] is listed as “skin reactions such as hand-foot syndrome and rash, diarrhea, fatigue, weight loss, and hypertension” and the “patients whose disease did not progress” value (advanced kidney cancer) is listed as “statistically higher percentage of patients whose disease did not progress”.
